These are literature values, as cited in patent US20070203190A1, “Hydroxylamines and derivatives for the inhibition of complement activation” (priority 2006, published 2007).

The test system of one data set is complement activation. The note with it: in vivo animal models.

As for “sCR1: a recombinant form of complement receptor 1 known as soluble complement receptor 1”, the “suppression of complement activation” value in the data set on complement activation is reported as “suppress complement activation”.

B1: CD59: blocks assembly of the MAC; proposed as a potential therapeutic agent (protein, UniProt P13987 26-102, looked up)
CD59 glycoprotein: LQCYNCPNPTADCKTAVNCSSDFDACLITKAGLQVYNKCWKFEHCNFNDVTTRLRENELTYYCCKKDLCNFNEQLEN
For the molecule B1, the activity in vitro entry in the data set with MAC is “limited activity”.
